Test results as given in publication PMC4464085, “Exploring monovalent and multivalent peptides for the inhibition of FBP21-tWW” (Beilstein Journal of Organic Chemistry, 2015).
Ends that are not written are not given here.

What was measured:
FBP21-WW1 = target: T1, FBP21-WW1 (Homo sapiens, UniProt O75554); assay: Isothermal titration calorimetry (ITC) with FBP21-WW1; type: binding; settings: PBS pH 7.4, 25 °C, protein in cell 250 µM, peptide in syringe 5 mM, GST-tagged FBP21-WW1
T1 construct: with regard to FBP21’s WW domains by ITC; GST (N); made in house; host or cells: E. coli BL21 DE3 (pGEX4T1)
T1 sequence (O75554 122-155 limits assumed): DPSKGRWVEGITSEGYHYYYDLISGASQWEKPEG
Method: In order to determine an optimal peptide sequence for a FBP21-tWW ligand, we conducted a phage display experiment for each of the two WW domains. Phages used in these experiments carried a randomized X9-peptide fused to phage coat protein VIII [16]. Enrichment factors were calculated after each selection cycle, and reached a plateau after four panning rounds. Phagemids were isolated and sequenced after the third and fourth panning rounds. The sequences for WW1 and WW2 were overlapping to a large extent, showing their similarity in binding preference. This is expected from evolutionary and binding studies carried out earlier. In agreement with previous findings for this group of WW domains a polyproline stretch and an arginine residue are present in most sequenced clones. […] To define an optimized single monovalent binder, we analyzed the affinities for a selected set of ligands from this panel of sequences with regard to FBP21’s WW domains by ITC under the same conditions as were used for the phage display. […] To further analyze which residues are essential for the interaction, we performed substitution analyses using peptide SPOT arrays (Figure 1D, Supporting Information File 1 Figure S1). The experiment gives some insight into binding specificities. The central role of proline P5 for binding of peptides is evident for both WW domains (Figure 1D, Supporting Information File 1 Figure S1). Proline fulfills two requirements. On the one hand it promotes formation of the PPII helix conformation, on the other hand, it is accommodated well into the hydrophobic groove provided by the individual WW domains. At position P4 proline can be replaced by leucine, a residue well compatible with the PPII helical conformation. Arginine is preferred at position 6 or 9, highlighting the importance of a positive charge in complex formation. […] Possibly, the hybrid resonance of the guanidinium group in the arginine is more important in the case of WW2 compared to WW1. […]
(§1) Isothermal titration calorimetry
(§2) The His6-FBP21-tWW, FBP21-WW1 and FBP21-WW2 were dialyzed against PBS, pH 7.4.
(§3) Peptides were dissolved in PBS and the pH was adjusted to 7.4. hPG-peptide conjugate 2 was dialyzed against Millipore water and the buffer components were adjusted to PBS pH 7.4. The concentration was analyzed for all components by measuring absorbance at 280 nm using a Nanodrop2000 (Thermo Scientific). Extinction coefficients were Ɛ = 5500 M−1cm−1 for WPPPPRVPR and Ɛ = 32430 M−1cm−1 for FBP21-tWW. Accounting for the number of peptides on the scaffold, we calculated an extinction coefficient of Ɛ = 38500 M−1cm−1 for the hPG-peptide conjugate 2. ITC experiments were carried out on a Microcal ITC200 (GE Healthcare).
The parameters were set to: temperature 25 °C, spacing: 120 s (for WW1 and WW2 measurements) or 180 s (for tWW measurements), stirring speed: 1000 rpm, feedback gain: high, Filter: 5 s, DP: 7 µcal/s. In ITC measurements with FBP21 WW1 and WW2, the protein in the cell was concentrated to 250 µM, the peptide in the syringe to 5 mM, injected was 1 × 1 µL, then 15 × 2.5 µL. In ITC measurements with FBP21-tWW and peptide the protein concentration in the cell was 200 µM and the peptide concentration in the syringe 4 mM. […] The data was analyzed with Origin and the Microcal ITC 200 AddOn. […]
FBP21-WW1 and FBP21-WW2 were expressed as a GST-tagged variant from pgex4T1 in E. coli BL21 DE3, FBP21-tWW was expressed from a pET28a-His6-FBP21-tWW plasmid in […]

FBP21-WW2 = target: T2, FBP21-WW2 (Homo sapiens, UniProt O75554); assay: Isothermal titration calorimetry (ITC) with FBP21-WW2; type: binding; settings: PBS pH 7.4, 25 °C, protein in cell 250 µM, peptide in syringe 5 mM, GST-tagged FBP21-WW2
T2 construct: with regard to FBP21’s WW domains by ITC; GST (N); made in house; host or cells: E. coli BL21 DE3 (pGEX4T1)
T2 sequence (O75554 163-196 limits assumed): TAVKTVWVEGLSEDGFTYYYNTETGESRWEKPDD
Method: as §1, §2, §3
The parameters were set to: temperature 25 °C, spacing: 120 s (for WW1 and WW2 measurements) or 180 s (for tWW measurements), stirring speed: 1000 rpm, feedback gain: high, Filter: 5 s, DP: 7 µcal/s. In ITC measurements with FBP21 WW1 and WW2, the protein in the cell was concentrated to 250 µM, the peptide in the syringe to 5 mM, injected was 1 × 1 µL, then 15 × 2.5 µL. In ITC measurements with FBP21-tWW and peptide the protein concentration in the cell was 200 µM and the peptide concentration in the syringe 4 mM. In ITC measurements with FBP21-tWW and the hPG-peptide conjugate 2, the concentration of 2 in the cell was 90 µM and FBP21-tWW in the syringe 1.4 mM. Injected was 1 × 1 µL, then 19 × 2 µL. The data was analyzed with Origin and the Microcal ITC 200 AddOn. To obtain the stoichiometry (N) and the […]
particles and grown overnight at 30 °C, 250 rpm. The bacteria were pelleted; Phages were precipitated from the supernatant using 20% PEG, 2.5 M NaCl. The precipitated phages were pelleted and washed before resuspension in PBS/30% glycerol.
Protein expression and purification
FBP21-WW1 and FBP21-WW2 were expressed as a GST-tagged variant from pgex4T1 in E. coli BL21 DE3, FBP21-tWW was expressed from a pET28a-His6-FBP21-tWW plasmid in E. coli BL21 DE3 as described previously. Proteins were purified by the corresponding affinity matrices and applied to a HiLoad S75 Superdex 16/60 column in 1 × PBS, pH 7.4.
Proteins were concentrated by Centrifugal Filter Units (regenerated cellulose, 3000 MWCO, […]
SPOT analyses were performed as described. Membranes were blocked with 5% BSA in PBS, washed and incubated with GST, GST-WW1 or GST-WW2 at a concentration of 7.5 µg/mL (GST) or 10 µg/mL (GST-WW1, GST-WW2) respectively overnight at 4 °C. After washing, the spot arrays were incubated with a primary anti-GST antibody (Santa Cruz, GST-Z5, sc-459, 1:1000) for one hour at room temperature in blocking buffer, washed again and incubated for one hour with a secondary anti-rabbit antibody (goat anti-rabbit, Santa Cruz, sc-2004, 1:10000) at room temperature in blocking buffer. The peptide spot arrays were developed with HRP juice purchased from pjk GmbH on an Intas Advanced Fluorescence and ECL imager.
Synthesis of hPG-peptide conjugate 2
The peptide carboxylic acid, i.e., Ac-WPPPPRVPRGSG-COOH (0.0067 mmol, 9 mg), was dissolved in 2 mL dry DMF and cooled down to 0 °C using an ice bath under argon atmosphere.
To the cooled solution, N-hydroxysuccinimide (0.013 mmol, 1.54 mg) and DCC (0.013 mmol, 2.76 mg) were added. The ice bath was removed and the reaction mixture was allowed to stir at room temperature overnight. […]

FBP21-tWW = target: T3, FBP21-tWW (Homo sapiens, UniProt O75554); assay: Isothermal titration calorimetry (ITC) with FBP21-tWW; type: binding; settings: PBS pH 7.4, 25 °C
T3 construct: made in house; host or cells: E. coli BL21 DE3 (pET28a)
T3 sequence (O75554 122-196 limits assumed): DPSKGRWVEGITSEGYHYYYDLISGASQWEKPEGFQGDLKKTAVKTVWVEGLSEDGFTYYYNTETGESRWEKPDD
Method: ITC measurements were performed to analyze the dissociation constant KD of the interaction between FBP21-tWW and hPG-peptide conjugate 2 in PBS, pH 7.4 (Figure 2A). To compare the KD values we also analyzed the binding between FBP21-tWW and the monovalent peptide ligand Ac-WPPPPRVPRGSG-COOH (Figure 2B). […] However, when considering that ≈7 peptides are bound per nanoparticle, the actual multivalency effect is small.
Gel permeation chromatography (GPC)
Molecular weight distribution of hPG-OH core was determined by means of GPC coupled to a refractive index detector (RI) obtaining the complete distribution (Mn, Mp, Mw, dispersity).
Measurements were carried out under highly diluted conditions (5 mg/mL) from a GPC consisting of an Agilent 1100 solvent delivery system with pump, manual injector, and an Agilent differential refractometer. Three 30 cm columns (PPS: Polymer Standards Service GmbH, Germany; Suprema 100 Å, 1000 Å, 3000 Å with 5 and 10 μm particle size) were used to separate aqueous polymer samples using water with 0.1 M NaNO3 as the mobile phase at a flow rate of 1 mL/min. The columns were operated at room temperature with the RI detector at 50 °C. […]
as §3, with “Extinction coefficients were Ɛ = 5500 M−1cm−1 for WPPPPRVPR and Ɛ = 32430 M−1cm−1 for FBP21-tWW.” left out, “ITC experiments were carried out on a Microcal ITC200 (GE Healthcare).” left out
The parameters were set to: temperature 25 °C, spacing: 120 s (for WW1 and WW2 measurements) or 180 s (for tWW measurements), stirring speed: 1000 rpm, feedback gain: high, Filter: 5 s, DP: 7 µcal/s. […] The data was analyzed with Origin and the Microcal ITC 200 AddOn. […]
FBP21-WW1 and FBP21-WW2 were expressed as a GST-tagged variant from pgex4T1 in E. coli BL21 DE3, FBP21-tWW was expressed from a pET28a-His6-FBP21-tWW plasmid in E. coli BL21 DE3 as described previously. […]

Ac-WPPPPRVPRGSG-COOH = target: T4, Ac-WPPPPRVPRGSG-COOH; assay: ITC
T4 chain: Ac-WPPPPRVPRGSG-OH

hPG-peptide conjugate 2 = target: T5, hPG-peptide conjugate 2 (also: multivalent conjugation to hyperbranched polyglycerol amine (about 7 peptides per polymer), site not given here); assay: ITC
T5 chain: Ac-WPPPPRVPRGSG

WPPPPRVPR peptide = target: T6, WPPPPRVPR peptide; assay: ITC
T6 chain: WPPPPRVPR

For Ac-WPPPPRVPR [WPPPPRVPR], the Kd (FBP21-WW1) was 155 ± 18 µM and the Kd (FBP21-WW2) was 87 ± 3.4 µM.

In the case of Ac-WPPPPRVPRGSG [Ac-WPPPPRVPRGSG-COOH], the “entropy loss upon interaction” value (FBP21-tWW; FBP21-tWW) is reported as −19.5 cal/mol/deg, the “stoichiometric factor derived from the fit (N)” value (FBP21-tWW; FBP21-tWW) is reported as 1.29 ± 0.0257 and the Kd (FBP21-tWW; His6-FBP21-tWW, peptide: protein in cell 200 µM, peptide in syringe 4 mM, conjugate 2: 90 µM in cell, FBP21-tWW 1.4 mM in syringe, read-out: KD of the interaction with FBP21-tWW) is reported as 150 ± 6 µM.

With RPPCGYPLP the “WW1 KD” value (FBP21-WW1) was “did not show any binding” and the “WW2 KD” value (FBP21-WW2) was “did not show any binding”.

In the case of RPPPPHFPQ, the “WW1 KD” value (FBP21-WW1) is reported as “could not be confirmed as a binder” and the “WW2 KD” value (FBP21-WW2) is reported as “could not be confirmed as a binder”.

In the case of YPRPPGPPP [YPRPPGPPP], the Kd (FBP21-WW1) is reported as 452 ± 45 µM and the Kd (FBP21-WW2) is reported as 68.5 ± 6.9 µM.

YPRPTNPRP [YPRPTNPRP] showed a Kd (FBP21-WW1) of 490 ± 54 µM and a Kd (FBP21-WW2) of 270 ± 24 µM.

B1: FBP21-tWW WW1-WW2 (protein)
chain: T3 sequence (O75554 122-196 limits assumed)
B1 showed a Kd (Ac-WPPPPRVPRGSG-COOH) of 150 µM and a Kd (hPG-peptide conjugate 2) of 17.6 µM.

In the case of RKKDPSKGRWVEGITSEGYHYYYDLISGASQWEKPEGFQG [FBP21 WW1 WW1], the Kd (WPPPPRVPR peptide) is reported as 155 µM.

LKKTAVKTVWVEGLSEDGFTYYYNTETGESRWEKPDDFIP [FBP21 WW2 WW2] showed a Kd (WPPPPRVPR peptide) of 87 µM.
